Assay results as given in publication PMC4890124, “Antimicrobial activity, improved cell selectivity and mode of action of short PMAP-36-derived peptides against bacteria and Candida” (Scientific Reports, 2016).
Values after ≈ are worked out from the molar mass of the structure shown.

Key:
Assay in all cases: microbe, parasite or virus in culture
[1] = test system: Candida tropicalis CGMCC 2.1975; type: cell-based; details: Candida tropicalis, CGMCC2, three independent experiments; for MIC: CLSI 2-fold microdilution, RPMI-1640, 28 °C for 48 h, visual; for MFC: lowest concentration killing at least 99.9% of initial inoculum, YPD agar, 48 h at 28 °C
Text: (§1) The antifungal activities were monitored in RPMI-1640 broth medium by a 2-fold microdilution assay according to the Clinical and Laboratory Standards Institute (CLSI) methods. The Candida albicans CGMCC 2.2086, Candida tropicalis CGMCC 2.1975, and Candida krusei CGMCC 2.1857 fungal strains were purchased from the China General Microbiological Culture Collection Center (CGMCC, Beijing, China). Clinically isolated Candida albicans CA2761 was provided by the 4th Affiliated Hospital of Harbin Medical University. Briefly, fungal strains were cultured on YPD agar plates (1% peptone, 0.5% yeast extract, 1% glucose and 2% agar) at 28 °C to prepare Candida suspensions with a turbidity of a 0.5 McFarland standard. A total of 50 μl inoculum cell suspension diluted in RPMI-1640 broth medium was added to an equal volume of peptide solution to achieve a final peptide concentrations ranging from 0.25 μM to 128 μM in a 96-well plate. Pure broth alone or with inoculum suspensions was used as the negative control or the positive control, respectively. The plate was incubated at 28 °C for 48 h. MIC was considered the lowest concentration at which no fungal growth was visually observed under experimental conditions. […] After 48 h incubation at 28 °C, MFC was defined as the lowest concentration of peptides that killed at least 99.9% of the initial inoculums. Experiments were performed in triplicate with three biological replicates.

[2] = test system: Candida krusei CGMCC 2.1857; type: cell-based; details: Pichia kudriavzevii, CGMCC2, three independent experiments; for MIC: CLSI 2-fold microdilution, RPMI-1640, 28 °C for 48 h, visual; for MFC: lowest concentration killing at least 99.9% of initial inoculum, YPD agar, 48 h at 28 °C
Text: as §1

[3] = test system: Candida albicans CGMCC 2.2086; type: cell-based; details: Candida albicans, CGMCC2, three independent experiments; for MIC: CLSI 2-fold microdilution, RPMI-1640, 28 °C for 48 h, visual; for MFC: lowest concentration killing at least 99.9% of initial inoculum, YPD agar, 48 h at 28 °C
Text: as §1

[4] = test system: C. albicans CA276 (clinical isolate); type: cell-based, Candida albicans; details: Candida albicans, three independent experiments; for MIC: CLSI 2-fold microdilution, RPMI-1640, 28 °C for 48 h, visual; for MFC: lowest concentration killing at least 99.9% of initial inoculum, YPD agar, 48 h at 28 °C
Text: as §1

Row | SMILES | MIC [1] [µM] | MFC [1] [µM] | MIC [2] [µM] | MFC [2] [µM] | MIC [3] [µM] | MFC [3] [µM] | MIC [4] [µM] | MFC [4] [µM]
1 | C[C@@H]1[C@H](O)[C@@H](C)/C=C/C=C/C=C/C=C/C=C/C=C/C=C/[C@H](O[C@@H]2O[C@H](C)[C@@H](O)[C@H](N)[C@@H]2O)C[C@@H]2O[C@](O)(C[C@@H](O)C[C@@H](O)[C@H](O)CC[C@@H](O)C[C@@H](O)CC(=O)O[C@H]1C)C[C@H](O)[C@H]2C(=O)O [Amphotericin B, reference compound] | 0.25 (≈ 0.231 µg/mL) | 1 (≈ 0.924 µg/mL) | 1 (≈ 0.924 µg/mL) | 1 (≈ 0.924 µg/mL) | 0.25 (≈ 0.231 µg/mL) | 0.25 (≈ 0.231 µg/mL) | 0.5 (≈ 0.462 µg/mL) | 1 (≈ 0.924 µg/mL)
2 | OC(Cn1cncn1)(Cn1cncn1)c1ccc(F)cc1F [Fluconazole, reference compound] | 0.25 (≈ 0.0766 µg/mL) | 1 (≈ 0.306 µg/mL) | 64 (≈ 19.6 µg/mL) | 64 (≈ 19.6 µg/mL) | 2 (≈ 0.613 µg/mL) | 2 (≈ 0.613 µg/mL) | 2 (≈ 0.613 µg/mL) | 2 (≈ 0.613 µg/mL)
